# Read-outs that look alike come from different tables or passages of the source.
# How the values were obtained:
# Assay type in all cases: cell-based
# hTLR7 = biological target: T1, hTLR7 (Homo sapiens, UniProt Q9NYK1); test: Reporter Gene Assay (RGA), HEK-Blue hTLR7 reporter cells, SEAP readout; conditions: overnight incubation, SEAP absorbance 620 nm
# T1 construct: host or cells: HEK-Blue hTLR7 reporter cells (HEK293-derived, own knowledge)
# T1 sequence (Q9NYK1 27-1049): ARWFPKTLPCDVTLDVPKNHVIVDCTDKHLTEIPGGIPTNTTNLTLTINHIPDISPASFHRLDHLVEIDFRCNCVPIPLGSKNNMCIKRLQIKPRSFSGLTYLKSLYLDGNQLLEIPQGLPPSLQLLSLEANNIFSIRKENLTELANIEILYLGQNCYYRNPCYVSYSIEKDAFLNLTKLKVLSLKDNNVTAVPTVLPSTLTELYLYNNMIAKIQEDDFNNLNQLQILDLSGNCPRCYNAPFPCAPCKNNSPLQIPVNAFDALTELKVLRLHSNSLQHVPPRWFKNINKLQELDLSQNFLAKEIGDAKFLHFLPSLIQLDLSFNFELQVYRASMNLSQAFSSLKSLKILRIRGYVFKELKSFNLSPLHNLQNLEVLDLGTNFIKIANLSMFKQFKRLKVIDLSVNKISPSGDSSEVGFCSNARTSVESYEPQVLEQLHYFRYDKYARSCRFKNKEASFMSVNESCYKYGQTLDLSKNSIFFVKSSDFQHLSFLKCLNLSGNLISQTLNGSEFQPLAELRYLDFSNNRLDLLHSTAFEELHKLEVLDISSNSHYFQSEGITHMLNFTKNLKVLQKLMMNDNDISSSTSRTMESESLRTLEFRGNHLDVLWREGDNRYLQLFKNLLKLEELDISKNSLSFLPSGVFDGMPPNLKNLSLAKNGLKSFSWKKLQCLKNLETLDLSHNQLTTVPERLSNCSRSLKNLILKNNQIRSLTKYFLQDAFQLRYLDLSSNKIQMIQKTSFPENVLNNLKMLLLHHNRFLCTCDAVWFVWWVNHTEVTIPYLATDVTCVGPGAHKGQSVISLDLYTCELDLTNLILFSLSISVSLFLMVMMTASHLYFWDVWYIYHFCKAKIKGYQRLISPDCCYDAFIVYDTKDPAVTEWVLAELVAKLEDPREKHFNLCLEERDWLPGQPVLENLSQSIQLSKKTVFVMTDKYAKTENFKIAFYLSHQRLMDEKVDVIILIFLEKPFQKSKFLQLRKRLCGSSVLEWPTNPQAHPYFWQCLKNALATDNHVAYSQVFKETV
# How it was run: (§1)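 HEK-Blue reporter cells expressing human or mouse TLR7 (1.5×10^4 cells) were treated with an 11-point, 4-fold compound titration from 15 pM in HEK-Blue Detection medium. Incubation was overnight at 37° C with 5% CO2. Secreted embryonic alkaline phosphatase was read as absorbance at 620 nm.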
# mTLR7 = biological target: T2, mTLR7 (Mus musculus, UniProt P58681); test: Reporter Gene Assay (RGA), HEK-Blue mTLR7 reporter cells, SEAP readout; conditions: overnight incubation, SEAP absorbance 620 nm
# T2 construct: host or cells: HEK-Blue mTLR7 reporter cells (HEK293-derived, own knowledge)
# T2 sequence (P58681 27-1050): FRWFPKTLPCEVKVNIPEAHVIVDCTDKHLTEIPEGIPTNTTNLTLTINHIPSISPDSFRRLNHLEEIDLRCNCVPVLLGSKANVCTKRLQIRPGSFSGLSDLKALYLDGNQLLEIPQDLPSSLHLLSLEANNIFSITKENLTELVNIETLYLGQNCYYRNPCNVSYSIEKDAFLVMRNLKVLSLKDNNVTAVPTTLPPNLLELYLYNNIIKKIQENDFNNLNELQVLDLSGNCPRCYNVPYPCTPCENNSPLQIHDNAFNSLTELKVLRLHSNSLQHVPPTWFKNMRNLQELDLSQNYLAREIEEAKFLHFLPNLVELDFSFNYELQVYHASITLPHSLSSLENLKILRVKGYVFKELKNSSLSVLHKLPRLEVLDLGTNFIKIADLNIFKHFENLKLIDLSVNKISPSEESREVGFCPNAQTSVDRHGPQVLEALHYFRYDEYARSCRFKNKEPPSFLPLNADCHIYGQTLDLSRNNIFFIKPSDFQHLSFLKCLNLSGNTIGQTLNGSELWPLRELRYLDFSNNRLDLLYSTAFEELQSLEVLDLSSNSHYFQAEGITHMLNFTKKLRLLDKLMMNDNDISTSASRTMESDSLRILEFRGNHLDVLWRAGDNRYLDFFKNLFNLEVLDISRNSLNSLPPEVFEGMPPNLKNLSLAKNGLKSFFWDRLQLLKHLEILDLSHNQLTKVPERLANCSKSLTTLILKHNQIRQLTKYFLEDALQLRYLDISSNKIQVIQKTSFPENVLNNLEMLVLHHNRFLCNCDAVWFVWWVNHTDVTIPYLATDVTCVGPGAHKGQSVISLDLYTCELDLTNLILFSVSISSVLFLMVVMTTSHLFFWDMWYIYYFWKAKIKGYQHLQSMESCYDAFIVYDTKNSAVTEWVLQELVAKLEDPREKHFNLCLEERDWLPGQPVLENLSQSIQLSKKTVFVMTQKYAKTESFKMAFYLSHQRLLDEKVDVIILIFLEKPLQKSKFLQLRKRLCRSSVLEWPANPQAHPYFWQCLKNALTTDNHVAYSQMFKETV
# How it was run: as §1
# [1] = system: Human peripheral blood mononuclear cells (PBMCs); test: Human PBMC Assay, cytokine release (HTRF); conditions: 24 hours; for EC50: PBMC
# How it was run: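 Cryopreserved human PBMCs, rested overnight with 10 ng/ml hIL3, then 300,000 cells/well treated 24 h at 37° C with compound (4-fold, 11-point titration from 15 μM) in RPMI+10% FBS. Supernatant hIL6, hTNFα and hIFNα measured by HTRF; growth medium as negative control.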
# Mouse splenocytes = test: Mouse Splenocyte Assay, cytokine release (HTRF); conditions: Splenocyte, 24 hours, mIL6 in supernatant, read-out: Splenocyte IL6 EC50
# How it was run: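 Splenocytes from female balb/c nude mice, thawed, 100,000 per well in RPMI + 10% FBS. Exposed for 24 h at 37 °C to a 4-fold 11-point compound titration from 15 μM; supernatant mIL6 and mTNFα measured by HTRF.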
# [2] = hIFNα in supernatant, EC50 values approximated and divided into groups, read-out: PBMC IFNa EC50
# [3] = hIL6 in supernatant, read-out: PBMC IL6 EC50
SMILES,EC50 (hTLR7),EC50 (mTLR7),"EC50 [1, 2]",EC50 (Mouse splenocytes),"EC50 [1, 3]",PBMC IL6 EC50 (nM) ([1]; hIL6 in supernatant)
"CCCCOc1nc(N)c2nc(O)n(Cc3ccc(CN4CCC(CCN)CC4)cc3OC)c2n1 [Compound 158, 6-amino-9-(4-((4-(2-aminoethyl)piperidin-1-yl)methyl)-2-methoxybenzyl)-2-butoxy-9H-purin-8-ol]",0.1 nM,0.1 nM,1 to 10 nM,3.2 nM,–,–
"CCCCOc1nc(N)c2nc(O)n(Cc3ccc(CNCC(C)(C)O)cc3OC)c2n1 [Compound 159, 6-amino-2-butoxy-9-(4-(((2-hydroxy-2-methylpropyl)amino)methyl)-2-methoxybenzyl)-9H-purin-8-ol]",1.6 nM,2.9 nM,< 0.1 nM,2 nM,–,–
"CCCCOc1nc(N)c2nc(O)n(Cc3ccc(CNCCCCN)cc3OC)c2n1 [Compound 160, 6-amino-9-(4-(((4-aminobutyl)amino)methyl)-2-methoxybenzyl)-2-butoxy-9H-purin-8-ol]",7.2 nM,10 nM,< 0.1 nM,6.6 nM,1080 nM,–
"CCCCOc1nc(N)c2nc(O)n(Cc3ccc(CN)cc3OC)c2n1 [Compound 162, 6-amino-9-(4-(aminomethyl)-2-methoxybenzyl)-2-butoxy-9H-purin-8-ol]",1.7 nM,2.3 nM,1 to 10 nM,1.3 nM,–,–
"CCCCOc1nc(N)c2nc(O)n(Cc3ccc(CNC)cc3OC)c2n1 [Compound 163, 6-amino-2-butoxy-9-(2-methoxy-4-((methylamino)methyl)benzyl)-9H-purin-8-ol]",0.7 nM,3.3 nM,< 0.1 nM,2.9 nM,–,–
"CCCCOc1nc(N)c2nc(O)n(Cc3ccc(CNC4CCC4)cc3OC)c2n1 [Compound 164, 6-amino-2-butoxy-9-(4-((cyclobutylamino)methyl)-2-methoxybenzyl)-9H-purin-8-ol]",< 0.1 nM,< 0.1 nM,< 0.1 nM,0.3 nM,2540 nM,–
"CCCCOc1nc(N)c2nc(O)n(Cc3ccc(CN4CCNCC4)cc3)c2n1 [Compound 166, 6-amino-2-butoxy-9-(4-(piperazin-1-ylmethyl)benzyl)-9H-purin-8-ol]",< 0.1 nM,11 nM,> 10 nM,150 nM,1570 nM,–
"CCCCOc1nc(N)c2nc(O)n(Cc3ccc(N4CCNCC4)nc3)c2n1 [Compound 167, 6-amino-2-butoxy-9-((6-(piperazin-1-yl)pyridin-3-yl)methyl)-9H-purin-8-ol]",0.5 nM,5.3 nM,> 10 nM,18 nM,2030 nM,–
"CCCCOc1nc(N)c2nc(O)n(Cc3ccc(N4CCC5(CCNCC5)CC4)nc3)c2n1 [Compound 168, 9-((6-(3,9-diazaspiro[5.5]undecan-3-yl)pyridin-3-yl)methyl)-6-amino-2-butoxy-9H-purin-8-ol]",0.1 nM,5.7 nM,> 10 nM,35.7 nM,–,inactive
"CCCCOc1nc(N)c2nc(O)n(Cc3ccc(N4CCNCC4)cc3OC)c2n1 [Compound 169, 6-amino-2-butoxy-9-(2-methoxy-4-(piperazin-1-yl)benzyl)-9H-purin-8-ol]",1.1 nM,3 nM,1 to 10 nM,23.2 nM,–,–
"CCCCOc1nc(N)c2nc(O)n(Cc3ccc(N4CCC(N)CC4)cc3OC)c2n1 [Compound 170, 6-amino-9-(4-(4-aminopiperidin-1-yl)-2-methoxybenzyl)-2-butoxy-9H-purin-8-ol]",1 nM,2 nM,> 10 nM,51.7 nM,1470 nM,–
"CCCCOc1nc(N)c2nc(O)n(Cc3ccc(N4CCC5(CCNCC5)CC4)cc3OC)c2n1 [Compound 171, 6-amino-2-butoxy-9-(2-methoxy-4-(3,9-diazaspiro[5.5]undecan-3-yl)benzyl)-9H-purin-8-ol]",< 0.1 nM,1.1 nM,> 10 nM,8.9 nM,1550 nM,–
"CCCCOc1nc(N)c2nc(O)n(Cc3ccc(CCCN4CCC(N)CC4)cc3OC)c2n1 [Compound 172, 6-amino-9-(4-(3-(4-aminopiperidin-1-yl)propyl)-2-methoxybenzyl)-2-butoxy-9H-purin-8-ol]",< 0.1 nM,< 0.1 nM,> 10 nM,2.1 nM,–,–
"CCCCOc1nc(N)c2nc(O)n(Cc3ccc(CCCN4CCNCC4)cc3OC)c2n1 [Compound 173, 6-amino-2-butoxy-9-(2-methoxy-4-(3-(piperazin-1-yl)propyl)benzyl)-9H-purin-8-ol]",0.2 nM,0.6 nM,1 to 10 nM,5 nM,1800 nM,–
"CCCCOc1nc(N)c2nc(O)n(Cc3ccc(CCCN4CCC(CCN)CC4)cc3OC)c2n1 [Compound 175, 6-amino-9-(4-(3-(4-(2-aminoethyl)piperidin-1-yl)propyl)-2-methoxybenzyl)-2-butoxy-9H-purin-8-ol]",< 0.1 nM,< 0.1 nM,> 10 nM,6 nM,–,inactive
"CCCCOc1nc(N)c2nc(O)n(Cc3ccc(CCCNC4CCNCC4)cc3OC)c2n1 [Compound 176, 6-amino-2-butoxy-9-(2-methoxy-4-(3-(piperidin-4-ylamino)propyl)benzyl)-9H-purin-8-ol]",< 0.1 nM,< 0.1 nM,> 10 nM,5.8 nM,–,inactive
"CCCCOc1nc(N)c2nc(O)n(Cc3ccc(CCN4CCNCC4)cc3OC)c2n1 [Compound 180, 6-amino-2-butoxy-9-(2-methoxy-4-(2-(piperazin-1-yl)ethyl)benzyl)-9H-purin-8-ol]",34 nM,79.9 nM,> 10 nM,873 nM,–,inactive
